How the values were obtained:
Cryptosporidium parvum = assay: Cytopathic effect (CPE) based assay, C. parvum infected HCT-8 cells; settings: HCT-8 host cell viability (CellTiter-Glo), 48 hours treatment, read-out: Cp CPE EC50
Outline: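 HCT-8 cells were batch-infected with excysted C. parvum (Iowa isolate) oocysts at MOI 1:2 (host:parasite) for 3 h at 37 °C, then seeded and incubated 24 h before compound addition. Compounds were given as 3-fold dilution series (final DMSO <0.5%). Host-cell loss (cytopathic effect) was read as viability with CellTiter-Glo.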

C. parvum PI(4)K = C. parvum PI(4)K (Cryptosporidium parvum, UniProt Q5CVD3); assay: CpPI(4)K enzymatic assay (Transcreener ADP2 FP); assay type: biochemical
Sequence of C. parvum PI(4)K (Q5CVD3 entry or part of it): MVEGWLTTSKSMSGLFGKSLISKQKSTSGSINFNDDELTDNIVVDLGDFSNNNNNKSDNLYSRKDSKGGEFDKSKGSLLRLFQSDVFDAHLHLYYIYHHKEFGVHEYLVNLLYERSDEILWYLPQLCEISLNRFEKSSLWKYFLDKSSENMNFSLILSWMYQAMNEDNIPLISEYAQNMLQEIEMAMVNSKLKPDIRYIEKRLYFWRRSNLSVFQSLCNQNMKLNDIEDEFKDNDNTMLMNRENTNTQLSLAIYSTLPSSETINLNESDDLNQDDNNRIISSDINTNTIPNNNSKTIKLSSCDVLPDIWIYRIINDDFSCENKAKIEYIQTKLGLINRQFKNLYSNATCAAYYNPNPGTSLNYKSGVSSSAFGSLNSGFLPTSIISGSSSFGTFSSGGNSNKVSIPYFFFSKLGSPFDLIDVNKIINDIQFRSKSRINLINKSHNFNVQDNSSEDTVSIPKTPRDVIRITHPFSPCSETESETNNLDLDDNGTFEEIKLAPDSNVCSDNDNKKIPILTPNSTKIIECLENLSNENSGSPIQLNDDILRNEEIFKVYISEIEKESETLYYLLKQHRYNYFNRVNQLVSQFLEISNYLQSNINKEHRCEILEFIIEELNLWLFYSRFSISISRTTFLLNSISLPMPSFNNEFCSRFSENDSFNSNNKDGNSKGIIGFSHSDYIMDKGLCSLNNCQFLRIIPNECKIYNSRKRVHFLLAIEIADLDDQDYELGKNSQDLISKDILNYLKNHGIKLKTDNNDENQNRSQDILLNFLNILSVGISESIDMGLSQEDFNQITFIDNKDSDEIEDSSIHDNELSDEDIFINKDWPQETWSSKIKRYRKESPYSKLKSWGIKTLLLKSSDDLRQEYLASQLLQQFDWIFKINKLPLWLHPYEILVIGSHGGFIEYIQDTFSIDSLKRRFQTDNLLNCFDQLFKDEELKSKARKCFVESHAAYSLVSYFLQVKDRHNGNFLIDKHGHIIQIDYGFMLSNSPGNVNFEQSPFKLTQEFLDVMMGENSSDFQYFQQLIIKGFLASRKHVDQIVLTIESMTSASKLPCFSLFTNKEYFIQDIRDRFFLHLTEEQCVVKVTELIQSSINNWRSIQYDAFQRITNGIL
From the text: The full-length coding sequence of C. parvum PI(4)K (cgd8_4500, 1114 amino acids) was codon-optimized for baculovirus expression, synthesized and cloned into pFastBac-HTb (Invitrogen 10584-027) in frame with the amino-terminal polyhistidine tag using the BamHI and Hindlll restriction sites. Recombinant pFastBacHTb-CpPI(4)K bacmid clones were generated by site-specific transposition in E. coli DH10Bac (Invitrogen 10361-012). The bacmid sequence was confirmed by direct DNA sequencing to confirm a lack of mutations across the whole gene. The subsequent steps for bacmid isolation, transfection and selection of the recombinant viruses were performed according to the manufacturer's protocol (Bac-to-Bac system #10359, Invitrogen).
SF9 cells, cultured in SF-900 III serum-free medium, were transfected with recombinant baculovirus at 1/200 (v/v) and incubated at 27° C. for 72 h. The pellets were collected after centrifugation and re-suspended in cell lysis buffer (20 mM Tris-HCl, pH 7.5, 300 mM NaCl, 1 mM DTT, 20 mM imidazole, 0.01% Triton X-100 and 1× complete protease inhibitor cocktail without EDTA (Roche Diagnostics 04693116001)). The cell suspension was lysed by sonication and the clarified supernatant was loaded onto a 1 ml HisTrap affinity column (GE Healthcare) pre-equilibrated with buffer A (20 mM Tris-HCl, pH 7.5, 300 mM NaCl, 1 mM DTT, 20 mM Imidazole, and 1× complete protease inhibitor cocktail without EDTA). The column was washed with buffer B (buffer A containing 45 mM imidazole) and the bound protein of interest was eluted with buffer C (buffer A with 90 mM imidazole). The fractions containing CpPI(4)K were pooled, concentrated using Amicon Ultra-15 and purified by a gel-filtration column (Hi-Load 26/60 Superdex 200, GE Healthcare) equilibrated with 20 mM Tris, pH 7.5, 300 mM NaCl, 1 mM DTT and 1× protease inhibitor cocktail without EDTA. The concentrations of the purified protein (Mw 132.39 kda) was determined by using the protein molar extinction coefficient (ε280 nm=133,810 M^−1 cm^−1). Aliquots were flash frozen in liquid nitrogen and immediately stored at −80° C.
The CpPI(4)K enzymatic assay was performed as described earlier with a some modifications (McNamara et al., 2013). Briefly, L-α-phosphatidylinositol (Avanti Polar Lipid 840046), dissolved in 3% n-octylglucoside (Roche Diagnostics 10634425001), was used as the lipid substrate for the PI(4)K activity assay. CpPI(4)K was assayed using Transcreener ADP2 FP detection kit (BellBrook 3010) in a black, solid 384-well plate (Corning 3575). The final assay volume was 10 μl and contained 3 nM of the respective CpPI(4)K construct in 10 mM Tris, pH 7.5, 1 mM DTT, 3 μM ATP, 5 mM Mn2+, 0.05% Triton X-100 and 10 μM phosphatidylinositol/octylglucoside. The enzyme reaction was performed for 50 minutes at room temperature and was stopped by adding 10 μl of detection mix containing 1× stop buffer (50 mM HEPES, pH7.5, 400 mM NaCl, 20 mM EDTA, and 0.02% Brij-35), 2 nM AMP Alexa Fluor 633 tracer, and 20 μg ml^−1 ADP antibody. Fluorescence polarization measurements were performed on the Infinite M1000 plate reader (Tecan) with λex=635 nm and λem=680 nm (20-nm bandwidth). IC50 values were calculated using Graphpad Prism software.
The inhibitory concentration (IC50) of selected compounds on the C. parvPI(4)K activity is provided in the third column [Cp_PI4K_enz IC50 (μM)] of Table II.

[1] = Cytotoxicity against HepG2; assay type: cell-based; settings: human, HepG2 cells (ATCC HB-8065), 5 days exposure
Experimental: Cytotoxicity against HepG2 (ATCC# HB-8065), a human liver cancer cell line, was determined as previously described earlier (Manjunatha et al., 2015). Briefly, cells were seeded at a density of 10^5 cells per well, incubated at 37° C. for 24 h and exposed to two-fold serially-diluted compounds for 5 days. Cell viability was monitored using the Cell Proliferation Kit II (Invitrogen). The cytotoxicity values of selected compounds are reported in the fifth column [HepG2 CC50 (μM)] of Table II.

Row | Compound | EC50 (Cryptosporidium parvum) [µM] | IC50 (C. parvum PI(4)K) [µM] | CC50 at 5 days [1] [µM]
1 | CNC(=O)c1ccc(-c2cnn3ccc(C(=O)N(c4ccc(C#N)cn4)C4CCCC4)cc23)cc1 [Example 126] | 0.41 | 0.071 | 22.1
2 | CC(C)[C@H](N)C(=O)Nc1ccc(-c2cnn3ccc(C(=O)N(C)c4ccc(C#N)cc4)cc23)cc1 [Example 45] | 0.332 | 0.239 | 
3 | CC(Cn1cccn1)N(C(=O)c1ccn2ncc(-c3ccc(C(N)=O)cc3)c2c1)c1ccc(C#N)cn1 (centres unmarked) [Example 77] | 0.582 | 0.05 | 29.3
4 | CN(C(=O)c1ccn2ncc(-c3ccc(C(N)=O)cn3)c2c1)c1ccc(C#N)cc1 [Example 27] | 0.815 | 0.14 | 
5 | CN(C(=O)c1ccn2ncc(-c3cnc4[nH]ccc4c3)c2c1)c1ccc(C#N)cn1 [Example 53] | 0.55 | 0.047 | 
6 | CNC(=O)c1ccc(-c2cnn3ccc(C(=O)N(CC4CC4)c4ccc(C#N)cn4)cc23)cc1 [Example 117] | 0.505 | 0.007 | 4.33
7 | CNC(=O)c1ccc(-c2cnn3ccc(C(=O)N(C)c4ccc(C#N)cc4)cc23)cn1 [Example 97] | 0.241 | 0.073 | 31.1
8 | CN(C(=O)c1ccn2ncc(-c3ccc(N)nc3)c2c1)c1ccc(C#N)cn1 [Example 54] | 0.324 | 0.074 | > 50
9 | CNC(=O)c1ccc(-c2cnn3ccc(C(=O)N(c4ccc(C#N)cn4)C4CCC4)cc23)cn1 [Example 144] | 1.79 |  | 7.69
10 | CNC(=O)c1ccc(-c2cnn3ccc(C(=O)N(c4ccc(C#N)cc4)C4CC4)cc23)cc1 [Example 118] | 0.026 |  | 5.9
11 | CN(C(=O)c1ccn2ncc(-c3ccc(C(N)=O)cc3)c2c1)c1ccc(Cl)cc1 [Example 100] | 0.021 |  | 13.3
12 | CNC(=O)c1ccc(-c2cnn3ccc(C(=O)N(c4ccc(C(=O)O)cn4)C4CC4)cc23)cc1 [Example 128] | > 20 |  | > 50
13 | CN(C(=O)c1ccn2ncc(-c3ccc(C(N)=O)cc3)c2c1)c1ccc(C#N)cc1 [Example 19] | 0.037 | 0.003 | 5.91
14 | CN(C(=O)c1ccn2ncc(-c3ccc(C(F)(F)F)cc3)c2c1)c1ccc(C#N)cn1 [Example 13] | 1.54 |  | > 50
15 | Cc1ccc(N(C)C(C)c2ccn3ncc(-c4ccc(C(N)=O)cc4)c3c2)nc1 (centres unmarked) [Example 65] | 5.12 |  | 2.28
16 | CN(C(=O)c1ccn2ncc(-c3ccnc(N)c3)c2c1)c1ccc(C#N)cn1 [Example 108] | 4.94 |  | 14.2
17 | CNC(=O)c1ccc(-c2cnn3ccc(C(=O)N(C)c4ccc(OC)nc4)cc23)cc1 [Example 122] | > 20 |  | 15.8
18 | CNC(=O)c1ccc(-c2cnn3ccc(C(=O)N(c4ccc(C#N)cc4)C4CC4)cc23)nc1 [Example 141] | 0.344 |  | 20.8
19 | CNC(=O)c1ccc(-c2cnn3ccc(C(=O)N(c4ccc(F)cn4)C(C)C)cc23)cn1 [Example 156] | 15.6 |  | > 50
20 | CNC(=O)c1ccc(-c2cnn3ccc(C(=O)N(c4ccc(F)cn4)C(C)C)cc23)cc1 [Example 151] | 2.31 |  | 29.2
21 | CNC(=O)c1ccc(-c2cnn3ccc(N(C(=O)c4ccc(C#N)cn4)C4CC4)cc23)cc1 [Example 147] | > 20 |  | 32.7
22 | CN(C(=O)c1ccn2ncc(-c3ccc(C(N)=O)cc3)c2c1)C1CCC(C#N)CC1 (centres unmarked) [Example 82] | > 20 |  | > 50
23 | CNC(=O)c1ccc(-c2cnn3ccc(C(=O)N(c4ccc(C(F)(F)F)cn4)C(C)C)cc23)cn1 [Example 152] | 0.456 |  | 14.9
24 | CN(C(=O)c1ccn2ncc(-c3ccc(C(N)=O)cc3)c2c1)c1ccc(F)cc1 [Example 20] | 0.105 |  | 5.42
25 | CN(C(=O)c1ccn2ncc(-c3ccc(C(=O)NCCO)cc3)c2c1)c1ccc(C#N)cn1 [Example 102] | 0.399 |  | 38.5
